The text below walks through data of paper PMC11246197 (Journal of medicinal chemistry, 2024).

By AUC(0-inf) is commonly meant the area under the concentration-time curve extrapolated to infinity. Low values mean low exposure, high ones high exposure. By AUC(0-t) is commonly meant the area under the concentration-time curve up to a stated or last time point. A word on the Cmax: it is the maximum level reached in the sampled fluid or tissue. What is called Vd is a proportionality between amount in the body and measured concentration, not a real space. Low readings indicate little distribution into tissue, high ones wide distribution into tissue. As usually defined, the half-life is the time in which the quantity being followed falls by half. A lower half-life goes with fast loss. The logD is lipophilicity at a set pH, counting ionised and neutral species.

Where two headings read alike, the source gives them in different places.

A short description of data set [1]: Plasma PK after oral administration in Ces1c−/− mice. The following applies: 54.4 μmole/kg.
Data set [2] in a line: Prodrug hydrolysis in human liver S9 fractions. The note with it: 15 min incubation. The data set is classed as in vitro ADME.
A short description of data set [3]: Prodrug hydrolysis in human intestine S9 fractions. In kind it is in vitro ADME. The note with it: 15 min incubation.
Another data set concerns BEAS-2B cells. In kind it is cell-based, human. The note with it: BNPP (CES1 inhibitor) up to 20 μM co-incubated with 10 μM ProTide.
For data set [4] the following is noted: cited from earlier work.
A short description of data set [5]: Ex vivo human plasma stability. The following applies: 10 μM, 37 °C, 4 hours.
In the next data set the test system is iPSC-AT2. The following applies: read-out: 50% cytotoxic concentration (CC50); cited from earlier work.
Data set [6] concerns the target T1, recombinant human CES1 (rhCES1) (Homo sapiens, UniProt P23141).
T1 sequence (P23141 18-567): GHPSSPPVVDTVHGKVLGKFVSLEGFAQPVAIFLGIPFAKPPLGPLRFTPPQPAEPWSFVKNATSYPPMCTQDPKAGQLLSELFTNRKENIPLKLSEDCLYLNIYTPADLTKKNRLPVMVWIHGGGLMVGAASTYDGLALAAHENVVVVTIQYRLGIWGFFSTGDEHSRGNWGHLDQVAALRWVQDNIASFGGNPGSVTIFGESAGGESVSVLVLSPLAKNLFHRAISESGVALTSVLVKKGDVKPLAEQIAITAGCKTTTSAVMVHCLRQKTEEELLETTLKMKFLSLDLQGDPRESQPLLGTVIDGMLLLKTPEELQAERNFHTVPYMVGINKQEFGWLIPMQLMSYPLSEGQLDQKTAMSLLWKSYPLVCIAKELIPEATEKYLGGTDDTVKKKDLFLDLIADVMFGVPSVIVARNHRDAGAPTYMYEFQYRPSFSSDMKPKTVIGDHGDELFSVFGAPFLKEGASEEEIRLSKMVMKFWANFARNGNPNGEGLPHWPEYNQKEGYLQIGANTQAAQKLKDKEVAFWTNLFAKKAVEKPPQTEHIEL
As to the kind of experiment: Hydrolysis of ProTides by recombinant human CES1. The data set is classed as biochemical. The following applies: 20 μM prodrug, 40 ng/μL rhCES1, 20 min, Tris buffer pH 7.5, 37 °C, n = 3.

The subject of another data set is VeroE6 cells. The note with it: read-out: 50% cytotoxic concentration (CC50); cited from earlier work.
The subject of another data set is lung virus titers. The following applies: 2 days post infection, cited from earlier work.
Data set [7] is described as follows: Plasma PK after IV administration. The following applies: for AUC(0-inf) / AUC(0-t) / Cmax / Vd / half-life / concentration at 15 min: male, mouse, plasma, iv; for AUC(0-inf) / AUC(0-t) / Cmax / Vd / half-life: Ces1c−/− (JAX stock # 014096).
For data set [8] the following is noted: cited from earlier work. The source holds these as a separate data set.
The conditions of data set [9]: wild-type mice; cited from earlier work.
Data set [10] deals with recombinant human CatA (rhCatA) (Homo sapiens, UniProt P10619). The data set is described as follows: Hydrolysis of ProTides by recombinant human CatA. In kind it is biochemical. The note with it: 20 μM prodrug, 0.5 ng/μL rhCatA, 10 min, MES buffer pH 5.5, 37 °C, n = 3.
Data set [11] deals with human bronchial epithelial cells. The note with it: within 48 hours after drug treatment; cited from earlier work.
The conditions of data set [12]: 24 h, 10 μM.
For data set [13] the following is noted: male, Ces1c−/− (Ces1c knockout), in vivo, iv.
For data set [14] the following is noted: cited from earlier work. This is another data set of the same source.
[15] abbreviates: IV bolus, 54.4 μmole/kg, Ces1c−/− mice.

recombinant human CatA (rhCatA), sequence (P10619 327-480): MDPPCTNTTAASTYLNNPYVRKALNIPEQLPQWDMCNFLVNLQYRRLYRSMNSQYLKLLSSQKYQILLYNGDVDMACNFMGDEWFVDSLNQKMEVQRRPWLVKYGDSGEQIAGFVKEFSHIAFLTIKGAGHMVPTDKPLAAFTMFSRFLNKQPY
recombinant human CatA (rhCatA), sequence (P10619 29-326): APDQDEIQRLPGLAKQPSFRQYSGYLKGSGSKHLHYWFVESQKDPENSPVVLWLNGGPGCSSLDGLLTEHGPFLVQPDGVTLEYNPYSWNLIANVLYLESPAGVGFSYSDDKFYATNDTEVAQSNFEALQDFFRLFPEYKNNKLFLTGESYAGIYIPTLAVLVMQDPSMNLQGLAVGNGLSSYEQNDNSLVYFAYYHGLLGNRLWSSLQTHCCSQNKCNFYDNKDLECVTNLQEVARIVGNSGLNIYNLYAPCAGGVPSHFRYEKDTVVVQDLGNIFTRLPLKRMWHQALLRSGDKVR

Regarding `CC(C)C(=O)OC[C@H]1O[C@@](C#N)(c2ccc3c(N)ncnn23)[C@H](OC(=O)C(C)C)[C@@H]1OC(=O)C(C)C` [GS-621763], in data set [1], the “Prodrug form in plasma after oral administration” value (“Prodrug form in plasma” for short) is listed as “barely detected”. In addition, the “Prodrug remaining in human liver homogenate” value in data set [2] was “could barely be detected”. For the same molecule, the “Prodrug remaining in human intestine homogenate” value in data set [3] was “could barely be detected”.

As to `O=[N+]([O-])c1ccc(OP(=O)(O)Oc2ccc([N+](=O)[O-])cc2)cc1` [BNPP, Bis-(p-nitrophenyl) phosphate], the “Effect of inhibitor on the formation of RDV-TP” value in the data set with BEAS-2B cells was “did not significantly alter”.

With `CCC(CC)COC(=O)[C@H](C)N[P@](=O)(OC[C@H]1O[C@@](C#N)(c2ccc3c(N)ncnn23)[C@H](O)[C@@H]1O)Oc1ccccc1` [RDV, remdesivir], in [4], the “Plasma half-life in Ces1c−/− mice” value is on record as ~ 25 min. The “Prodrug form in plasma” value in [1] was “barely detected”. Moreover, the “Hydrolyzed in human plasma” value in data set [5] is “approximately 70%”. Besides, the CC50 in the data set with iPSC-AT2 was 32.7 µM. For the same molecule, the “Activity of rhCES1 for prodrug hydrolysis” value in data set [6] stood at 15.5 ± 1.8 pmol/min/μg protein. Further, the CC50 in the data set on VeroE6 cells was 101 µM. In addition, the “Effect on lung virus titers” value in the data set with lung virus titers (25 mg/kg twice daily) was “significantly reduced the lung virus titers”. The “Effect on lung virus titers” value in the data set on lung virus titers (50 mg/kg single dose daily) is “could not”. In data set [7] (setting [15]), the “CL/F of the administered compound” value amounted to 1.06 ± 0.44 L⋅h^−1 and the “Presence in plasma 4 hours after IV administration” value is listed as “barely detectable”. Further, in [7] (54.4 μmole/kg), the AUC(0-inf) worked out at 1.58 µM·h, the AUC(0-t) amounted to 1.57 µM·h, the Cmax was found to be 1.37 µM and the Vd amounted to 1.91 ± 0.94 L. In data set [7] (54.4 μmole/kg), this molecule showed a half-life of 1.25 ± 0.39 h and a concentration at 15 min of 1.37 µM. The “Portion of plasma RDV that disappeared” value in [7] (within 30 minutes after IV administration) is “about 90%”. In [8], the “Half-life in human plasma” value is 1.15 h, the “Half-life in human plasma ex vivo” value is 1.15 h and the “Stability in human plasma” value is 69 min. The “Plasma half-life in mice” value in [9] was less than 5 min. Further, the “Activity of rhCatA for prodrug hydrolysis” value in [10] is listed as 1,786.5 ± 179.2 pmol/min/μg protein.

With `N#C[C@@]1(c2ccc3c(N)ncnn23)O[C@H](CO)[C@@H](O)[C@H]1O` [Nuc], the “RDV-TP levels, fold lower than RDV” value in [11] is given as “at least 40 fold”. The “CL/F of the administered compound” value in data set [7] (setting [15]) amounted to 0.052 ± 0.002 L⋅h^−1. Moreover, in [7] (54.4 μmole/kg), the AUC(0-inf) was 26.3 µM·h, the AUC(0-t) was 25.1 µM·h, the Cmax came out at 18.1 µM and the Vd was 0.47 ± 0.29 L. Moreover, in data set [7] (54.4 μmole/kg), the half-life was 6.34 ± 4.01 h and the concentration at 15 min was 18.1 µM. The “Reduction after incubation with human plasma” value in data set [12] amounted to 5%. For the same molecule, the “RDV-TP concentrations in the mouse lung relative to estimated EC50/EC90” value in data set [13] was “constantly below EC50”.

As for `CC(C)OC(=O)[C@H](C)N[P@](=O)(OC[C@H]1O[C@@](C#N)(c2ccc3c(N)ncnn23)[C@H](O)[C@@H]1O)Oc1ccccc1` [IsoRDV], in data set [1], the “Oral bioavailability (estimated)” value is given as “less than 2%” and the “Prodrug form in plasma” value is reported as “barely detected”. Moreover, the logD in [14] was 1.1. Moreover, the “Hydrolyzed in human plasma” value in data set [5] is roughly 15%. For the same molecule, the “Activity of rhCES1 for prodrug hydrolysis” value in data set [6] was 7.7 ± 1.4 pmol/min/μg protein. Besides, in data set [7] (setting [15]), the “AUC0-∞ of the administered compound in plasma” value is given as 4,950.3 ± 628.2 h⋅nM, the “CL/F of the administered compound” value stood at 0.28 ± 0.03 L⋅h^−1, the “Vd (apparent distribution volume)” value was determined as 0.42 ± 0.17 L and the “t1/2 of the administered compound in plasma” value came out at 1.04 ± 0.33 h. In [7] (IV bolus, 54.4 μmole/kg, Ces1c−/− mice, AUC0-t(8h)), the “AUC0-t of the administered compound in plasma” value was 4,941.6 ± 626.4 h⋅nM. The “Stability in human plasma” value in data set [8] was 1561 min. The “Activity of rhCatA for prodrug hydrolysis” value in data set [10] was found to be 236.7 ± 172.8 pmol/min/μg protein.
